Measurements from patent publication US6544957B2, “Methods and reagents for facilitating transcription” (The Johns Hopkins University, priority 2000, dated 2003).
Several values for one entry are separate records, joined by “and”; a condition that tells them apart may be missing. Identical values can stand only once.

Legend:
[1] = Richon et al., 1996; cited from earlier work
[2] = system: histone deacetylase (HDAC) in PANC-1 cells; assay: Immunoblotting assay of histone acetylation; type: cell-based
Method: PANC-1 cells were untreated or treated with scriptaid (2 μg/ml) or TSA (0.1 or 0.32 μg/ml). Acetylated histones were detected by anti-human acetyl-lysine antibody immunoblot. Immunoblotting Assay of Histone Acetylation. PANC-1 cells were treated with 2 μg/ml of scriptaid (ChemBridge), 0.1 μg/ml, or 0.32 μg/ml of trichostatin A (Sigma, St. Louis, Mo.) for 18 hours in culture media. Treated and untreated cells were harvested with trypsin-EDTA (Life Technologies, Inc.), washed with phosphate-buffered saline (Life Technologies, Inc.), and resuspended in a protein sample buffer. Protein concentration was determined by BCA protein assay reagents (Pierce, Rockford, Ill.). Fifty micrograms of proteins from each sample was loaded on a 12% denaturing polyacrylamide gel. Proteins were subsequently transferred to a nylon membrane (Imobilon P, Millipore, Burlington, Mass.) using Milliblot-Graphite Electroblotter I (Millipore). The nylon membrane was incubated with rabbit anti-human acetyl-lysine antibody (#06-933, Upstate Biotechnology, Waltham, Mass.) at 1:1000 dilution, followed by goat anti-rabbit antibody coupled to horseradish peroxidase (Pierce) at 1:2000 dilution, developed with SuperSignal substrates (Pierce), and detected by film (BioMax, Kodak, Rochester, N.Y.).

[3] = system: p6SBE-luc, p6MBE-luc, pCMVβ, pUB6/V5-lacZ reporters in PANC-1 or MDA-MB-468 cells; assay: Transient transfection reporter assay (luciferase, β-gal); type: cell-based; conditions: 18 hours; for facilitation of reporter expression after transient transfection (in words): SV40, CMV and ubiquitin c promoters, PANC-1 or MDA-MB-468
Method: FIGS. 7A-7C. Scriptaid and TSA transcriptional facilitation after transient transfection. PANC-1 or MDA-MB-468 cells were transiently transfected for 4 hours with constructs containing various promoters. Transfected cells were untreated or treated with scriptaid or TSA for 18 hours. Data represent averages of two to five experiments and SEM. FIG. 7A, SV40 promoter and luciferase reporter gene. FIG. 7B, CMV promoter and β-gal reporter gene. FIG. 7C, human ubiquitin c promoter and β-gal reporter gene.
Transfection Assay. Each transient transfection experiment was done in duplicate in six-well plates. LipofectAMINE (Life Technologies, Inc.) was used as directed by the manufacturer. The DNA-LipofectAMINE mixture was removed from cells after 4-5 hours of transfection, and culture media with or without compounds or TGFβ was then added to the cells. Sixteen to eighteen hours from the start of the transfection, cell lysates were prepared with Reporter Lysis Buffer (Promega) for luciferase and β-gal assays. Luciferase was measured using The Luciferase Assay System (Promega) and β-gal assay was performed as previously described (Dai et al., 1998). Studies of the SV40 promoter included all experiments done with p6SBE-luc, p6MBE-luc, and pGL3-control (Promega) plasmids. Studies of the CMV promoter were done using pCMVβ. (Clonetech, Palo Alto, Calif.), and those of human ubiquitin c promoter were done using pUB6/V5-lacZ (Invitrogen).

[4] = system: PANC-1 and MDA-MB-468 cells; assay: Survival curve, trypan-blue exclusion; type: cell-based; conditions: 18-hour incubation; for cytotoxicity (in words): at optimal concentration for transcriptional facilitation
Method: FIGS. 5A to 5B. Effects of compounds on cell survival. […] Data represent averages of two to four experiments and SEM. FIG. 5A, scriptaid. FIG. 5B, TSA.
Survival Curve. Equal numbers of cells were plated in six-well plates in the absence or presence of scriptaid or TSA at different concentrations. After 18 hours of incubation, cell numbers were determined by trypan-blue exclusion. Percent survival of the treated cells was calculated in comparison to the untreated sample, which was considered to represent 100%.

[5] = system: PANC-1 cells containing the stably integrated p6SBE-luc; assay: TGFβ/Smad4 signal transduction assay with stably integrated p6SBE-luc (FIGS. 6B, 6C); type: cell-based; conditions: absence or presence of TGFβ 1 ng/ml
Method: FIGS. 6A-6C. Proportional effects of scriptaid and TSA on the TGFβ/Smad4 signal transduction assay. FIG. 6A, p6SBE-luc or p6MBE-luc was cotransfected with pCMV-β into PANC-1 cells. Transfected cells were untreated or treated with TGFβor/and scriptaid for 18 hours. […] Relative luciferase induction was determined after normalization to the TGFβ-non-inducible pCMV-β control, itself subject to scriptaid facilitation (see FIG. 7). Data represent averages of two experiments and SEM. FIG. 6B, total luciferase induction in PANC-1 cells containing the stably integrated p6SBE-luc after treatment with scriptaid or TSA in the absence or presence of TGFβ (1 ng/ml). FIG. 6C, relative luciferase induction in PANC-1 cells containing the stably integrated p6SBE-luc after treatment with scriptaid or TSA in the absence or presence of TGFβ (1 ng/ml ) determined after normalization to the values observed with the HDAC inhibitor alone.
Cell Lines. PANC-1 and MDA-MB-468 cell lines were purchased from ATCC (Manassas, Va.). Stable transfectants were generated by co-transfection of pcDNA3.1 (Invitrogen, Carlsbad, Calif.) and p6SBE-luc into PANC-1 cells with LipofectAMINE (Life Technologies, Inc.). Transfected cells were diluted and selected in multiple 96-well plates in the presence of 0.5 mg/ml of G418 (Life Technologies, Inc.). […]

[6] = system: PANC-1 cells having stably integrated p6SBE-luc; assay: Dose response of transcriptional facilitation in stably transfected cell line (FIG. 3); type: cell-based; conditions: for transcriptional facilitation (in words): at concentrations corresponding to scriptaid; for optimal concentration for transcriptional facilitation: PANC-1 stably integrated p6SBE-luc, luciferase
Method: FIG. 3. Dose responses of TSA and scriptaid transcriptional facilitation in a stably transfected cell line. Luciferase activity was determined using PANC-1 cells having stably integrated p6SBE-luc at the indicated concentration of compounds. Data represent averages of two to three experiments and SEM.
(§1) Cell Lines. PANC-1 and MDA-MB-468 cell lines were purchased from ATCC (Manassas, Va.). Stable transfectants were generated by co-transfection of pcDNA3.1 (Invitrogen, Carlsbad, Calif.) and p6SBE-luc into PANC-1 cells with LipofectAMINE (Life Technologies, Inc.). Transfected cells were diluted and selected in multiple 96-well plates in the presence of 0.5 mg/ml of G418 (Life Technologies, Inc.). Single clones were expanded and tested for basal luciferase expression and TGFβ inducibility. One clone was chosen on basis of high (6 to 8-fold) induction of luciferase by 0.5 ng/ml TGFβ (R&D Systems, Minneapolis, Minn.).
(§2) Compound Screening. Each compound of the library (DIVERSet, ChemBridge, San Diego, Calif.) was dissolved and diluted in DMSO at 1 mg/ml. Cells were plated in 96-well cluster plates (Corning, Cambridge, Mass.) and incubated with each compound, after further dilution in culture media to the final concentration of 2 μg/ml, for 16-18 hours. Luciferase activity was measured upon addition of Steady-Glo substrate (Promega). Up to sixteen 96-well plates could be assembled in a Wallac Trilux photodetector (Wallac, Gaithersburg, Md.) for measurement. All readouts from each experiment were compared to the control wells, and a number reflecting the relative increase in luciferase activity was calculated for each chemical using Excel (Microsoft, Redmond, Wash.) spreadsheets.
The entire library, consisting of 16,320 compounds, was screened. Eleven compounds were associated with a two to five-fold induction of luciferase activity, and one with a twelve-fold activation (FIG. 1). Further studies on the latter compound (ID#217444, 6-(1,3-Dioxo-1H,3H-benzo[de]isoquinolin-2-yl)-hexanoic acid hydroxyamide, we termed scriptaid) are reported here (FIG. 2). […] The results were validated by repeated determinations in the screening assay and subsequently by a dose-response curve performed on PANC-1 cells containing stably integrated p6SBE-luc (FIG. 3).

[7] = system: p6SBE-luc reporter construct in PANC-1 cells; assay: Compound screening, luciferase activity in PANC-1 cells with stably integrated p6SBE-luc; type: cell-based; conditions: 2 μg/ml compound, 16-18 hours, initial library screen
Method: as §1
as §2, with “spreadsheets. […]” for “spreadsheets.”

| SMILES | optimal concentration reported [1] [µM] | facilitation of reporter expression after transient transfection (in words) [3] | cytotoxicity (in words) [4] | effect on TGFβ-stimulated induction of integrated p6SBE-luc (in words) [5] | induction of luciferase activity relative to control wells [7] | other results |
| --- | --- | --- | --- | --- | --- | --- |
| CC(=O)NCCCCCCNC(C)=O [HMBA] | 5000 |  |  |  |  |  |
| O=C(/C=C/c1cccc(C(=O)NO)c1)NO [CBHA] | 4 |  |  |  |  |  |
| CC(/C=C/C(=O)NO)=C\[C@@H](C)C(=O)c1ccc(N(C)C)cc1 [TSA, trichostatin A] |  | less predictable at its optimal concentration | cytotoxic for two cell lines | proportionally enhance the induction of an integrated p6SBE-luc construct without interfering with TGFβ-stimulated transcriptional responses |  | inhibition of endogenous histone deacetylation (in words) ([2]; TSA 0.1 μg/ml, compared with scriptaid 2 μg/ml and TSA 0.32 μg/ml): less efficient; survival ([4]; minimal toxic concentration 0.1 μg/ml): 85-90% |
| O=C(CCCCCCC(=O)Nc1ccccc1)NO [SAHA] | 2 |  |  |  |  |  |
| O=C(CCCN1C(=O)c2cccc3cccc(c23)C1=O)NO [nullscript, 4-(1,3-Dioxo-1H,3H-benzo[de]isoquinolin-2-yl)-N-hydroxy-butyramide] |  |  |  |  | did not induce | transcriptional facilitation (in words) [6]: inactive; transcriptional facilitation (in words) ([6]; listed as Nullscipt): does not facilitate transcription |
| O=C(CCCCCN1C(=O)c2cccc3cccc(c23)C1=O)NO [scriptaid, 6-(1,3-Dioxo-1H,3H-benzo[de]isoquinolin-2-yl)-hexanoic acid hydroxyamide] |  | capable of inducing high expression | not lethal to one cell line | proportionally enhance the induction of an integrated p6SBE-luc construct without interfering with TGFβ-stimulated transcriptional responses | twelve-fold | increase in histone acetylation ([2]; cultured cells, scriptaid 2 μg/ml, 18 hours, anti-acetyl-lysine immunoblot): greater than 100 fold; increase of transcription of all three reporters (p6SBE-luc, p6MBE-luc, pCMVβ) ([3]; transient cotransfection in PANC-1 cells): twelve-fold; optimal concentration for transcriptional facilitation [6]: 6 to 8 µM; optimal concentration for transcriptional facilitation ([6]; listed as Scriptaid): 2-2.5 μg/ml and 6-8 μM; survival ([4]; at its optimal concentration for transcriptional facilitation, cell line not named): 80% |
